{"source": "patent US20190016689A1", "about": "“NOVEL FLUORINATED QUINAZOLINE DERIVATIVES AS EGFR INHIBITORS” (TRILLIUM THERAPEUTICS INC., priority 2016, published 2019)", "test_system": "hepatocytes", "test": "Metabolic stability (hepatocytes)", "format": "in vitro ADME", "settings": "1 μM", "procedure": "a) Place incubation medium (William's E Medium supplemented with GlutaMAX) and hepatocyte thawing medium in a 37° C. water bath, and allow warming for at least 15 minutes prior to use. b) Remove a vial of cryopreserved hepatocytes from storage, ensuring that vials remain at cryogenic temperatures until thawing process ensues. Thaw the cells by placing the vial in a 37° C. water bath and gently shaking the vials for 2 minutes. After thawing is completed, spray vial with 70% ethanol, transfer the vial to a biosafety cabinet. c) Use wide-bore pipette tip to transfer hepatocytes into 50 mL conical tube containing thawing medium. Place the 50 mL conical tube into a centrifuge and spin at 100 g for 10 minutes. Upon completion of spin, aspirate thawing medium and resuspend hepatocytes in enough incubation medium to yield ˜1.5×10^6 cells/mL. d) Using a Trypan Blue exclusion, count cells and determine the viable cell density. Cells with poor viability (<75% viability) are not acceptable for use. Dilute cells with incubation medium to a working cell density of 0.5×10^6 viable cells/mL. e) A portion of the hepatocytes at 0.5×10^6 viable cells/mL was boiled for 5 min prior to adding to the plate as negative control to eliminate the enzymatic activity so that little or no substrate turnover should be observed. The boiled hepatocytes are used to prepare negative control samples, which used to exclude the misleading factor that resulted from instability of chemical itself. Negative control wells are prepared in duplicate.\na) Pipette 198 μL of hepatocytes into each wells of a 96-well non-coated plate. Place the plate in the CO2 incubator at 37° C. on an orbital shaker to allow the hepatocytes to warm for 10 minutes. b) Pipette 2 μL of the 100 μM test compounds or positive control into respective wells of the 96-well plate to start the reaction. c) Return the plate to the incubator and place on an orbital shaker with a shaking speed of 150 rpm. The reaction for each compound will be performed in duplicate.\na) Remove 25 μL aliquots of reaction mixture at time points of 0, 15, 30, 60, 90 and 120 minutes. b) The aliquots are then mixed with 6 volumes (150 μL) of acetonitrile containing internal standards (IS: 100 nM alprazolam, 200 nM labetalol, and 2 μM ketoprofen) to terminate the reaction. Centrifuge the plate for 20 minutes at 3,800 g. Aliquots of 100 μL of the supernatants will be mixed with 100 μL ultrapure water and used for LC/MS/MS analysis."}
{"smiles": "CN(C)C/C=C/C(=O)Nc1cc2c(Nc3cccc(Cl)c3F)ncnc2cc1OCCOC(F)F.O=C(O)/C=C\\C(=O)O", "note": "[Example I-5-MA, (E)-N-[4-(3-chloro-2-fluoro-anilino)-7-[2-(difluoromethoxy)ethoxy]quinazolin-6-yl]-4-(dimethylamino)but-2-enamide dimaleic acid salt]", "values": [{"measurement": "% Remaining @ 120 min", "setting": "Dog hepatocytes", "value": 47.29, "unit": "%"}, {"measurement": "% Remaining @ 120 min", "setting": "Human hepatocytes", "value": 82.95, "unit": "%"}, {"measurement": "% Remaining @ 120 min", "setting": "Monkey hepatocytes", "value": 21.97, "unit": "%"}, {"measurement": "% Remaining @ 120 min", "setting": "Mouse hepatocytes", "value": 36.27, "unit": "%"}, {"measurement": "% Remaining @ 120 min", "setting": "Rat hepatocytes", "value": 59.08, "unit": "%"}]}
